{
  "source": "patent US8957053B2",
  "about": "“Proliposomal testosterone formulations” (Tesorx Pharma, LLC, priority 2012, dated 2015)",
  "key": {"[1]": {"test": "Solubility of testosterone in various buffers", "assay_type": "physicochemical", "conditions": "phosphate buffer pH 6.80, 72 h at RT", "protocol": "The solubility of testosterone in different media was tested. An amount of testosterone (100 mg) was added to each of four glass vials containing 10 ml of either: a) HCl buffer (pH 1.20), b) Acetate buffer (pH 4.50), c) phosphate buffer solution (PBS) pH 6.80 and d) nano pure water. These samples were subjected for shaking in a water bath for 72 h at RT. The samples were suitably diluted and analyzed by the HPLC assay method described in Comparative Example 2. Solubility of testosterone was high in phosphate buffer pH 6.80."}, "[2]": {"test": "Solubility in SLS after sonication", "assay_type": "physicochemical", "conditions": "1% w/v SLS, sonication 10 min", "protocol": "Solubility of: a) 10 mg pure testosterone; and b) formulation PLF-2 equivalent to 10 mg testosterone in either 0.5%, 1%, or 2% SLS following sonication for 10 min. was determined. For these studies, 10 mg of pure testosterone was weighed and dissolved in either 100 ml of 0.5%, 1%, or 2% (w/v) SLS, respectively, in volumetric flasks. An amount of formulation PLF-2 that contained 10 mg of testosterone was weighed, and sample solutions were prepared in a similar way as that described above for the testosterone control. These solutions were subjected for sonication for 10 min in a bath sonicator. The samples were then filtered and diluted suitably in their respective concentrations of SLS. The amounts of soluble testosterone for each concentration of SLS was determined by using the HPLC assay method described in Comparative Example 2."}},
  "data": [
    {"smiles": "C[C@]12CC[C@H]3[C@@H](CCC4=CC(=O)CC[C@@]43C)[C@@H]1CC[C@@H]2O", "note": "[testosterone]", "values": [
      {"measurement": "Solubility of testosterone", "setting": "[1]", "result": "high"},
      {"measurement": "testosterone solubility", "setting": "[2]", "result": "high testosterone solubility"}
    ]}
  ]
}
